* marks the point of attachment. FITC = O=C1OC2(c3ccc(O)cc3Oc3cc(O)ccc32)c2ccc(NC(=S)*)cc21
What was measured:
[1] = Solubility of library compounds in DMSO; format: physicochemical; conditions: stock concentration of 10 mM in DMSO
Method: A pharmacophore model was generated based on the interactions of HR1 and HR2 domains in the calculated structural model of Mfn2 in the closed conformation. The key features included hydrophobic interactions involving Mfn2 HR1: Val372 and Met376, and aromatic interactions and hydrogen bonding involving Mfn2 HR1 His380. […] A library comprising ˜14 million commercially available compounds was prepared in silico and evaluated using PHASE to fit these criteria. Top ranked hits were clustered, and filtered based on pharmacological properties using Qikprop. The top 55 (see TABLE 4) commercially available small molecules conforming to the model were selected for functional screening and purchased in 1 mg aliquots. Each compound was dissolved to a stock concentration of 10 mM in DMSO and applied to Mfn2 null MEFs overnight at a final concentration of […]. Eleven of the library members were not soluble in DMSO at the required concentration. The 44 fully soluble compounds were screened in groups of 6 at a time for cytotoxicity (calcein AM/ethidium homodimer staining; ThermoFisher LIVE/DEAD Assay cat #L3224) and fusogenicity (increase in mitochondrial aspect ratio; MitoTracker Orange staining) compared to cells treated overnight with […] of the parent HR1 367-384 mitofusin agonist peptide (positive control) or vehicle (DMSO). Images were acquired by confocal microscopy. Each compound was scored for fusogenicity (see e.g., FIG. 24A) and % cell death (see e.g., FIG. 24B). Pharmacophore model fit generally correlated with actual fusogenic activity (Pearson correlation coefficient r=0.214; see e.g., FIG. 24A, inset; TABLE 4).

[2] = Human liver microsome stability assay; format: in vitro ADME; conditions: human liver microsomes (FIG. 49)
Method: FIG. 49 is a series of structures and a graph showing dose-response and human liver microsomal stability data for fusogenic compounds from FIG. 22. […] T1/2 values are from human liver microsome stability assay.
(§1) Plasma protein binding was measured using equilibrium dialysis; % bound=(1-[free compound in dialysate]/[total compound in retentate])×100. Plasma stability of […] compound in clarified freeze-thawed plasma was assessed by LC-MS/MS of supernatants after protein precipitation; 120 min data are reported for studies including 0, 10, 30, 60, and 120 min. Microsome stability of […] compound in liver microsomes (0.5 mg/ml) after 0, 5, 10, 20, 30, 60 min. incubation was assessed by LC/MS/MS of reaction extracts.

Mfn2 null MEFs = test: Mitochondrial elongation (aspect ratio) fusogenicity assay; format: cell-based, mouse; design: % long compare to B: dose or concentration left out as unconfirmed; conditions: for Fusogenic activity: mitochondrial elongation / fusion; for % long compare to B: mitochondrial elongation relative to Cpd B (B01 = 100), compound overnight as printed (FIG. 48)
[3] = Plasma protein binding (equilibrium dialysis); format: in vitro ADME
Method: as §1

[4] = Liver microsome stability; format: in vitro ADME
Method: as §1

MFN2 HR2 = molecular target: T1, MFN2 HR2 (Homo sapiens, UniProt O95140); test: HR1 peptide-HR2 target binding assay; conditions: FITC minipeptide 374-384 at HR2 binding site
T1 construct: host or cells: synthetic peptide (note in the listing); immobilised on Ni-NTA resin
T1 sequence (O95140 with tags, fused parts or gaps limits assumed): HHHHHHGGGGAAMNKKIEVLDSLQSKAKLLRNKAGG
Text: The Mfn-derived fusion-promoting and -inhibiting mini-peptides (simulated to obtain the chemical Mfn agonists in TABLE 1 and TABLE 2) were modified from amino acid heptad repeats (HR) in the HR1 domain and predicted to interact with their counterparts in the carboxyl terminus HR2 domain within the Mfn stalk region (see e.g., FIG. 1, top panel). A high-throughput binding assay was designed whereby the target HR2 peptide sequences, modified to include amino terminal 6×His tags and Gly linkers, were bonded to Ni-chelate resin (20 μg/ml) and used as immobilized “receptor” for amino-FITC-tagged Mfn2 374-384 (agonist ligand) in which the Ser analogous to Ser378 was replaced with Asp to confer the negative charge essential for activity. For antagonist studies the ligand was amino-FITC-tagged Mfn2 406-418. The FITC peptide ligands are suspended at 1 mM in 30% DMSO, 70% water (to minimize spontaneous aggregation) and diluted into binding buffer (de-ionized water) to a final concentration of 25 μM in the presence or absence of competing compound. Dose-dependent loss of resin-bound FITC signal (485 nm excitation/538 nm emission) measured in a 96 well spectrofluorometer represents binding of compound to its HR2 target (see e.g., FIG. 10, FIG. 11). Either the ligand peptide or the receptor peptide can be modified to represent mutations, variations, or posttranslational modifications of Mfn2. […]
Target HR2 peptide sequence modified to include amino terminal 6×His tags and Gly linkers, were bonded to Ni-NTA resin (4.4 μg/ml) (Quiagen) and used as immobilized “receptor” for amino-FITC-tagged Mfn2 374-384 (ligand) in which the Ser analogous to Ser378 was replaced with Asp to confer the negative charge essential for activity. […] Resin-bound FITC signal (485 nm excitation/538 nm emission) measured in a 96 well spectrofluorometer (Spectramax M5e, Molecular Devices) represented binding to HR2 target. Competition binding isotherms were plotted and IC50 values calculated using Prism 7 (GraphPad).

Question: For `Cc1cc(C)nc(SCC(C)Cn2c(N3CCC(C(N)=O)CC3)nc3c2c(=O)[nH]c(=O)n3C)n1` (centres unmarked) [1-(7-{3-[(4,6-dimethylpyrimidin-2-yl)sulfanyl]-2-methylpropyl}-3-methyl-2,6-dioxo-2,3,6,7-tetrahydro-1H-purin-8-yl)piperidine-4-carboxamide], which “Solubility in DMSO at required concentration” value (“Solubility in DMSO” for short) [1] is on record?
Answer: Insol- uble

Question: Which results are given for `Cn1c(SCC(=O)Nc2sc3c(c2C(N)=O)CCC3)nnc1-c1ccccc1` [1-B1, 2-{2-[(4-methyl-5-phenyl-4H-1,2,4-triazol-3-yl]sulfanyl]acetamido}-4H,5H,6H-cyclopenta[b]thiophene-3-carboxamide]?
Answer: Resistance to liver microsomal degradation vs Cpd B [2]: greater resistance to liver microsomal degradation; Fusogenic activity (Mfn2 null MEFs): more potent; % long compare to B (Mfn2 null MEFs; Mfn2 null MEFs): 107%

Question: What does the source list for `CCn1c(SCC(=O)Nc2sc3c(c2C(N)=O)CCC3)nnc1C1CC1` [1-G11, 2-{2-[(5-cyclopropyl-4-ethyl-4H-1,2,4-triazol-3-yl)sulfanyl]acetamido}-4H,5H,6H-cyclopenta[b]thiophene-3-carboxamide]?
Answer: Resistance to liver microsomal degradation vs Cpd B [2]: greater resistance to liver microsomal degradation; Fusogenic activity (Mfn2 null MEFs): more potent; % long compare to B (Mfn2 null MEFs; Mfn2 null MEFs): 99%

Question: For `CCC(Sc1nc2cc(OC)c(OC)cc2c2nc(CCn3nc(C)cc3C)nn12)C(=O)Nc1ccc(F)cc1` (centres unmarked) [2-({2-[2-(3,5-dimethyl-1H-pyrazol-1-yl)ethyl]-8,9-dimethoxy-[1,2,4]triazolo[1,5-c]quinazolin-5-yl]sulfanyl)-N-(4-fluorophenyl)butanamide], which “Solubility in DMSO” value [1] is on record?
Answer: Insol- uble

Question: Which “Solubility in DMSO” value [1] does the source give for `CC(=O)NC12CC3CC(C1)CC(C(=O)NCCSCc1ccc(C)cc1)(C3)C2` [3-acetamido-N-(2-{[(4-methylphenyl)methyl]sulfanyl}ethyl)adamantane-1-carboxamide] here?
Answer: Insol- uble

Question: For `Cc1ccc(C(=O)C(C)Sc2nnc3c(=O)n(-c4ccccc4)ccn23)cc1C` (centres unmarked) [3-{[1-(3,4-dimethylphenyl)-1-oxopropan-2-yl]sulfanyl}-7-phenyl-7H,8H-[1,2,4]triazolo[4,3-a]pyrazin-8-one], which “Solubility in DMSO” value [1] is on record?
Answer: Insol- uble

Question: With `Cc1ccc(C(=O)C(C)Sc2nnc3c(=O)n(-c4ccc(Br)cc4)ccn23)cc1C` (centres unmarked) [7-(4-bromophenyl)-3-{[1-(3,4-dimethylphenyl)-1-oxopropan-2-yl]sulfanyl}-7H,8H-[1,2,4]triazolo[4,3-a]pyrazin-8-one] as the molecule, how does the “Solubility in DMSO” value [1] read?
Answer: Insol- uble

Question: With `COc1cc(Cl)c(C)cc1N1C(=O)[C@@H]2C[C@H]1CN2Cc1cccn1-c1ncccn1` [(1S,4S)-2-(4-chloro-2-methoxy-5-methylphenyl)-5-{[1-(pyrimidin-2-yl)-1H-pyrrol-2-yl]methyl}-2,5-diazabicyclo[2.2.1]heptan-3-one] as the molecule, how does the “Solubility in DMSO” value [1] read?
Answer: Insol- uble

Question: Which “Plasma protein binding” value [3] does the source give for `Cn1c(CCCNC(=O)NC2CCOCC2)nnc1C1CC1` [Mitolityn-6, 1-(3-(5-cyclopropyl-4-methyl-4H-1,2,4-triazol-3-yl)propyl)-3-(tetrahydro-2H-pyran-4-yl)urea] here?
Answer: low plasma protein binding

Question: And the “Fusogenic activity” value (Mfn2 null MEFs)?
Answer: highest potency

Question: What about the “Liver microsome stability” value [4] of the same molecule?
Answer: stability in the liver microsome assay

Question: For `Cc1ccc(CSCCNC(=O)C2CCN(c3ccc4nnc(C(F)(F)F)n4n3)CC2)cc1` [N-(2-{[(4-methylphenyl)methyl]sulfanyl}ethyl)-1-[3-(trifluoromethyl)-[1,2,4]triazolo[4,3-b]pyridazin-6-yl]piperidine-4-carboxamide], which “Solubility in DMSO” value [1] is on record?
Answer: Insol- uble

Question: For `Cc1cc(NC(=O)C(C)SCC(=O)Nc2ccc(NC(C)c3ccccc3)cc2)no1` (centres unmarked) [N-(5-methyl-1,2-oxazol-3-yl)-2-{[({4-[(1-phenylethyl)amino]phenyl}carbamoyl)methyl]sulfanyl}propanamide], which “Solubility in DMSO” value [1] is on record?
Answer: Insol- uble

Question: With `CC(Sc1nc(C2CC2)nc2c1c(=O)[nH]c(=O)n2C1CC1)C(=O)NCC1CCCCC1` (centres unmarked) [N-(cyclohexylmethyl)-2-({2,8-dicyclopropyl-5,7-dioxo-5H,6H,7H,8H-pyrimido[4,5-d][1,3]diazin-4-yl}sulfanyl)propanamide] as the molecule, how does the “Solubility in DMSO” value [1] read?
Answer: Insol- uble

Question: For `Cc1ccc(SC(C)C(=O)Nc2ccc(NS(=O)(=O)c3ccc4c(c3)OCCCO4)cc2)cc1` (centres unmarked) [N-[4-(3,4-dihydro-2H-1,5-benzodioxepine-7-sulfonamido)phenyl]-2-[(4-methylphenyl)sulfanyl]propanamide], which “Solubility in DMSO” value [1] is on record?
Answer: Insol- uble

Question: For `CCc1nnc(SC(CC)C(=O)N(CC)c2cccc(C)c2)c2cc3occc3n12` (centres unmarked) [N-ethyl-2-({12-ethyl-5-oxa-1,10,11-triazatricyclo[6.4.0.0^2,6]dodeca-2(6),3,7,9,11-pentaen-9-yl}sulfanyl)-N-(3-methylphenyl)butanamide], which “Solubility in DMSO” value [1] is on record?
Answer: Insol- uble

Question: For `Cc1ccc(NC(=O)CC2SC(NC(c3ccc(C(C)C)cc3)c3c(O)[nH]c(=O)[nH]c3=O)=NC2=O)c(C)c1` (centres unmarked) [drawing 252, N-(2,4-dimethylphenyl)-2-(2-{[(6-hydroxy-2,4-dioxo-1,2,3,4-tetrahydropyrimidin-5-yl)[4-(propan-2-yl)phenyl]methyl]amino}-4-oxo-4,5-dihydro-1,3-thiazol-5-yl)acetamide], which “Aspect ratio (MEAN ± SEM)” value (Mfn2 null MEFs; Mfn2 null MEFs, overnight, treatment with 1 μM compound (footnote)) is on record?
Answer: 3.1 ± 0.3

Question: And the “Fusogenicity Rank” value (Mfn2 null MEFs; rank order of aspect ratio among 44 soluble library compounds)?
Answer: 35

Question: Which “% long compare to B” value (Mfn2 null MEFs; Mfn2 null MEFs) does the source give for `O=C(NCCCCc1ccccc1)Nc1ccccc1` [pA, 3-phenyl-1-(4-phenylbutyl)urea] here?
Answer: 59%

Question: Which “% long compare to B” value (Mfn2 null MEFs; Mfn2 null MEFs) does the source give for `NC(=O)c1c(NC(=O)CCCc2ccccc2)sc2c1CCC2` [pB, 2-(4-phenylbutanamido)-4H,5H,6H-cyclopenta[b]thiophene-3-carboxamide] here?
Answer: 6%

Question: For “Ala^378 minipeptide: "(NH3) FITC-GGGG-AVRGIMDALHMAAR-GG (COOH) (FITC labeled Ala peptide) (SEQ ID NO: 28)" ({FITC}-GGGGAVRGIMDALHMAARGG-OH)”, which “Binding to / competition at HR2 target” value (MFN2 HR2) is on record?
Answer: did not

Question: With “Ser^378 minipeptide: "(NH3) FITC-GGGG-AVRGIMDSLHMAAR-GG (COOH) (FITC labeled Ser peptide) (SEQ ID NO: 26)" ({FITC}-GGGGAVRGIMDSLHMAARGG-OH)” as the molecule, how does the “Binding to / competition at HR2 target” value (MFN2 HR2) read?
Answer: did not
